The text below walks through data of patent publication US12162836B2, “N-acyl-{4-[(4-aryl-phenyl)sulfonylmethyl]piperidine} compounds and their therapeutic use” (Modern Biosciences Limited, priority 2019, dated 2024).

Some results are limits rather than exact numbers.

A short description of data set [1]: Rodent Pharmacokinetics Studies. It counts as in vivo, rat. The conditions noted are these: male Han Wistar rats; for i.v. AUC: 0.25 mg/kg intravenous; for Bioavail, F: oral vs intravenous; for half-life: rat, plasma. The text has this: Absorption and metabolic stability were studied using an in vivo pharmacokinetics assay.
[…] Test compounds were formulated in 0.5% carboxymethylcellulose (CMC)/0.1% Tween-80 for administration via the oral route, or in 5% DMSO/10% solutol in saline for administration via the intravenous route. For compound HMC-C-01-A the oral administration was formulated in 2% dimethylacetamide/20% hydroxypropyl-β-cyclodextrin in water. Animals were given free access to food throughout the study except for fasting overnight and until 2 hours post dose on the day of dosing.
Blood samples were taken from the retro-orbital plexus at the following time points and placed in microtubes containing 20% K2EDTA solution:
Oral Dosing: predose; 0.25, 0.5, 1, 2, 4, 6, 8, 12 and 24 hours post dose.
Blood samples were centrifuged to obtain plasma, which was transferred to a separate container and frozen at −20° C.
For analysis, samples were thawed at room temperature and prepared by protein precipitation with acetonitrile spiked with internal standard (500 ng/mL glipizide) in the ratio 1:4 with plasma.
The pharmacokinetic parameters for the test compounds were calculated by Phoenix WinNonlin version 8.0 (Certara, CA) using standard non-compartmental methods. Peak plasma concentrations (Cmax) and time of the peak plasma concentration (Tmax) were the observed values. The area under the plasma concentration-time curve (AUC) was determined by use of the linear trapezoidal rule up to the last measurable concentration (AUClast) and thereafter by extrapolation of the terminal elimination phase to infinity (AUCinf). The elimination phase half-life (t1/2) was calculated as 0.693/kel.

Data set [2] concerns the target hERG ion channel (Homo sapiens (Human), UniProt Q12809). The data set can be described thus: hERG Ion Channel binding assay (3H astemizole displacement). In a few lines:
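Membranes from stably transfected hERG-HEK293 cells incubated with 1.5 nM ³H-astemizole ± test compound in HEPES buffer pH 7.4 (0.1% BSA, 5 mM KCl, 130 mM NaCl) at 25° C for 60 min. Bound ligand measured by filtration and scintillation counting; reported as % displacement (0% none, 100% complete).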

Data set [3] deals with collagen-induced arthritis in DBA/1j mice. The data set can be described thus: Mouse Collagen-Induced Arthritis. The following applies: 10 mg/kg/day, once daily for 14 days, oral gavage; arthritic index vs control. It counts as in vivo. On the procedure: Seven- to eight-week-old male DBA/1j mice were used for all procedures. Animals were housed in groups of 10, and were maintained at 21° C.±2° C. on a 12-hour light/dark cycle with food and water ad libitum. Complete Freund's adjuvant (CFA) was prepared by emulsifying bovine type II collagen at 4 mg/mL with a 4 mg/mL suspension of Mycobacterium tuberculosis H37Ra in Incomplete Freund's Adjuvant (IFA) (0.85 mL paraffin oil and 0.15 mL mannide monooleate) in a 1:1 (v/v) ratio. All mice were immunised subcutaneously with 200 μg of bovine type II collagen in CFA. 21 days later, all mice were immunised subcutaneously with 100 μg of bovine type II collagen in IFA. The mice started to develop signs and symptoms of arthritis following the ‘booster’ immunisation.
For macroscopic assessment of arthritis, the following signs were monitored in each paw of each mouse three times per week and summed to generate the Arthritic Index (A1) (the maximum A1 for one animal is 16): • 0=no visible effects of arthritis. • 1=oedema and/or erythema of 1 digit. • 2=oedema and/or erythema of 2 digits. • 3=oedema and/or erythema of more than 2 digits. • 4=severe arthritis of entire paw and digits.
Animals were sorted into treatment groups with a mean arthritic index of 2.5 and then dosed once daily for 14 days with compound: by oral gavage for test compounds, or by subcutaneous injection at a dose of 10 mg/kg for the positive control, etanercept. After completion of the experiment, the mice were sacrificed.
The data were analysed by generating an average of the arthritic index across each treatment group. The mean arthritic index was then compared to the arthritic index of control (untreated) animals using the following formula to generate a percentage inhibition of disease.

The test system of data set [4] is CYP1A2, CYP2C9, CYP2C19, CYP2D6 and CYP3A4. It counts as in vitro ADME, human. On the procedure: The ability of test compounds to inhibit five of the most relevant cytochrome P450 enzymes was measured by determination of the activity of cytochrome P450 enzymes in recombinant cytochrome preparations, called Bactosomes (Cypex Ltd, Dundee, Scotland UK DD2 1 NH), in the presence of a specific probe substrate. Bactosomes are a highly efficient and cost-effective source of recombinant CYP450s which have a higher specific activity of enzyme compared to other sources, such as liver microsomes. […] The following CYP450 isoforms were assayed: CYP1A2, CYP2C9, CYP2C19, CYP2D6 and CYP3A4. The study of CYP450 inhibition potential in Bactosomes is accepted as a valuable model permitting rapid prediction of potential drug-drug interactions in vivo (see, e.g., Weaver et al., 2003).
Bactosomes were obtained from a commercial source (Cypex, Scotland, UK). Test compounds were incubated with Bactosomes at 6 concentrations. Samples were incubated for 10 minutes, after which the reaction was stopped and the samples analysed by LC-MS/MS Multiple Reaction Monitoring (MRM) for the presence/amount of substrate probe. […]

Sequence of hERG ion channel (Q12809 whole entry): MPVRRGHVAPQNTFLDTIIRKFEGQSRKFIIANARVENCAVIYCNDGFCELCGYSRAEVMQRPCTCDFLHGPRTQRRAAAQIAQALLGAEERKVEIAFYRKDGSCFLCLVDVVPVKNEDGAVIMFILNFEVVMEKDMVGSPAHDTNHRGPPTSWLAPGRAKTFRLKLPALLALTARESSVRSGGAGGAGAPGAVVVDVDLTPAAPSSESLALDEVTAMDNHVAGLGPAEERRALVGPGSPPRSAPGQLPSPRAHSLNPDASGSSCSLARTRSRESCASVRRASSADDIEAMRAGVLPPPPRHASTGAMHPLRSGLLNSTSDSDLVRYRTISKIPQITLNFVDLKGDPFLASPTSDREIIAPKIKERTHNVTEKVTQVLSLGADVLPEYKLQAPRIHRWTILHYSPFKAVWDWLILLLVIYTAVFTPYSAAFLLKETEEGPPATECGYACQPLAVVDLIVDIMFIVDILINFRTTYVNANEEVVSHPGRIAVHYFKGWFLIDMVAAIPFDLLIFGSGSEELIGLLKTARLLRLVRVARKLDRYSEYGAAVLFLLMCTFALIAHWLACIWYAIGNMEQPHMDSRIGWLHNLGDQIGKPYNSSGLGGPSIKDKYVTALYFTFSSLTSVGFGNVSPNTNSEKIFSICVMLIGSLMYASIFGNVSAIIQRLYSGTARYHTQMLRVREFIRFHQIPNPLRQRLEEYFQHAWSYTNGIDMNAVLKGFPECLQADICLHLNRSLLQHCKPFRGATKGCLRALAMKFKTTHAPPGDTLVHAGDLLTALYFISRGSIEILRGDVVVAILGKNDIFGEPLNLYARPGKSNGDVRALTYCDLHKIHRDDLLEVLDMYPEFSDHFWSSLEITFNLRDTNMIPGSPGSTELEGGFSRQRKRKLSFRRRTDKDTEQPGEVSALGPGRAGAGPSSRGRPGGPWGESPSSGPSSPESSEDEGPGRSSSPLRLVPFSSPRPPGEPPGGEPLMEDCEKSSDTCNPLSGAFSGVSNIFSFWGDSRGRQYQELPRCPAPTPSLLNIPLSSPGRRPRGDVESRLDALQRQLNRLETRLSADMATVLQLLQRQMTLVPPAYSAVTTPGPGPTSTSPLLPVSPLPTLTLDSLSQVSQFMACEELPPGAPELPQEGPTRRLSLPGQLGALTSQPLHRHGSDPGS

As to `CC(=O)N1CCC(CS(=O)(=O)c2ccc(-c3ccc(Cl)cc3C#N)cc2)CC1` [NASMP-06, 4′-(((1-Acetylpiperidin-4-yl)methyl)sulfonyl)-4-chloro-[1,1′-biphenyl]-2-carbonitrile], in data set [1], the “i.v. AUC” value is 349 ng/mL/min; the “Bioavail, F” value is 24%; the half-life was 3.3 h. For the same molecule, the “p.o. AUC” value in data set [1] (1.25 mg/kg orally) is given as 3030 ng/mL/min.

On to `CCC(=O)N1CCC(CS(=O)(=O)c2ccc(-c3ccc(F)cc3F)cc2)CC1` [NASMP-15, 1-(4-(((2′,4′-Difluoro-[1,1′-biphenyl]-4-yl)sulfonyl)methyl)piperidin-1-yl)propan-1-one], for which, in data set [1], the “i.v. AUC” value stood at 282 ng/mL/min; the “Bioavail, F” value was >62%; the half-life was 4.9 h. In addition, in data set [1] (1.25 mg/kg orally), the “p.o. AUC” value is reported as 1750 ng/mL/min.

Turning to `CC(=O)N1CCC(CS(=O)(=O)c2ccc(-c3ccc(F)cc3F)cc2C(F)(F)F)CC1` [NASMP-12, 1-(4-(((2′,4′-Difluoro-3-(trifluoromethyl)-[1,1′-biphenyl]-4-yl)sulfonyl)methyl)piperidin-1-yl)ethan-1-one], in data set [1], the “i.v. AUC” value was determined as 581 ng/mL/min; the “Bioavail, F” value is >69%; the half-life was 5.1 h. Besides, in data set [1] (1.25 mg/kg orally), the “p.o. AUC” value is recorded as 3160 ng/mL/min.

On to `CC(=O)N1CCC(CS(=O)(=O)c2ccc(-c3c(F)cccc3F)cc2)CC1` [NASMP-09, 1-(4-(((2′,6′-Difluoro-[1,1′-biphenyl]-4-yl)sulfonyl)methyl)piperidin-1-yl)ethan-1-one], for which the “cardiac safety profile, hERG (in words)” value in data set [2] was “particularly positive profile”.

With `CC1(O)CCC(NS(=O)(=O)c2ccc(-c3ccc(F)cc3F)cc2)CC1` (centres unmarked) [ABD899, reference compound], in data set [1], the T1/2 is reported as 10.8 h; the “i.v. AUC” value came out at 2133 ng/mL/min; the “Bioavail, F” value came to 50%. For the same molecule, the “p.o. AUC” value in data set [1] (dosed at 5 mg/kg orally) is 10740 ^(4) ng/mL/min. In data set [3], the “% inhibition of disease” value is 77%.

For the molecule `CC(=O)N1CCC(CS(=O)(=O)c2ccc(-c3ccc(C#N)cc3Cl)cc2)CC1` [NASMP-05, 4′-(((1-Acetylpiperidin-4-yl)methyl)sulfonyl)-2-chloro-[1,1′-biphenyl]-4-carbonitrile], the “drug-drug interaction liability, CYP450 inhibition profile (in words)” value in data set [4] is “particularly good profile”.

In the case of `CC(=O)N1CCC(CS(=O)(=O)c2ccc(-c3ccc(F)cc3F)cc2)CC1` [NASMP-01, 1-(4-(((2′,4′-Difluoro-[1,1′-biphenyl]-4-yl)sulfonyl)methyl)piperidin-1-yl)ethan-1-one], in data set [2], the “cardiac safety profile, hERG (in words)” value is recorded as “particularly positive profile”. Also, in data set [1], the “i.v. AUC” value was determined as 816 ng/mL/min; the “Bioavail, F” value is 56%; the half-life was 6.6 h. Besides, the “p.o. AUC” value in data set [1] (1.25 mg/kg orally) was found to be 2299 ng/mL/min. Moreover, in data set [4], the “drug-drug interaction liability, CYP450 inhibition profile (in words)” value is recorded as “particularly good profile”. The “% inhibition of disease” value in data set [3] is 64%.
